In paper PMC8151276, “An Integrated Approach toward NanoBRET Tracers for Analysis of GPCR Ligand Engagement” (Molecules, 2021):

Tests used:
Assay type in all cases: binding
[1] = biological target: T1, RXFP3 (Homo sapiens, UniProt Q9NSD7); assay: NanoBRET screen HiBiT-RXFP3 in HEK293
T1 construct: purchased Promega (in-house HiBiT-GPCR construct library, NanoBRET)
T1 sequence (Q9NSD7 1-469): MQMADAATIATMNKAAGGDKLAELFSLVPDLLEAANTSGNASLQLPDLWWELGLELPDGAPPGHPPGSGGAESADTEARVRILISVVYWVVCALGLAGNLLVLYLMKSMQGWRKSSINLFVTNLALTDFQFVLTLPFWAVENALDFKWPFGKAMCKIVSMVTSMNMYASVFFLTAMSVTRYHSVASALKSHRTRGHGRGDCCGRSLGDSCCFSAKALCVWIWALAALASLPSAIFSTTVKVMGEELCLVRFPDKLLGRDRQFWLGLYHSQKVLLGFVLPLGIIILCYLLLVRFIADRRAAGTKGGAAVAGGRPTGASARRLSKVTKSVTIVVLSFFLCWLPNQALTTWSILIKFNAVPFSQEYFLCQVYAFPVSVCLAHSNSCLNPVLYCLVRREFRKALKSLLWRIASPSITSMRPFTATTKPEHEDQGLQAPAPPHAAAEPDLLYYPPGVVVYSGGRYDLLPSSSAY
Protocol: (§1) Each tracer candidate was screened across the entire library of HiBiT-GPCR constructs using NanoBRET as the detection modality. As depicted in Figure 4A, the specificity of interactions was evaluated through decrease in BRET due to competitive displacement of a bound tracer by excess parental compound. Each tracer was analyzed for binding to each HiBiT-GPCR fusion in the absence and in the presence of competing parental compound. Briefly, HEK293 cells were transfected with HiBiT-GPCR constructs diluted into promoterless DNA to reduce expression and maximize translocation to the cell surface. Each tracer candidate was then screened at concentrations of 1 μM and 0.1 μM across cells expressing these fusions. Cells were treated for 1.5 h with tracer either alone or in the presence of 20 μM competing parental compound (i.e., control). BRET was measured upon addition of purified LgBiT and subsequent complementation with HiBiT genetically fused to a GPCR. The specificity of interactions was assessed through a decrease in BRET signal due to competitive displacement of the bound tracer. To further gauge the robustness of these interactions, the fold response over the control (i.e., BRETtracer/BRETcontrol) was calculated. We chose a 1.5-fold response, which translates to ≥7-fold signal over noise as the minimal threshold required to score an interaction as positive. […]. Below we highlight the screening results obtained for our exemplary fluorescent tracers based on Clozapine, Amitriptyline and AZD1283.
(§2) HiBiT-GPCR DNA constructs were diluted in 10 mM Tris pH 8 to a final concentration of 0.01 μg/μL, arrayed in 96-well plates and stored at −20 °C. For transfection, HEK293 cells were suspended in Opti-MEM (without phenol red) supplemented with 2% fetal bovine serum (Seradigm) and 100 units/mL penicillin–streptomycin (Gibco) at a final concentration of 220,000 cells/mL and dispensed into white 96-well plates at 90 μL/well. Subsequent transfections and screens were carried using an Agilent Bravo Automated Liquid Handling Platform. First, the 96-well HiBiT DNA arrays were diluted 25-fold in Opti-MEM (without serum or phenol red) to a final concentration of 0.0004 μg/μL and 20 μL of the diluted DNAs were transferred into new 96-well plates. Next, promoterless carrier DNA (1 μg/μL) was diluted 25-fold (0.04 μg/μL) and then dispensed into the diluted arrays at 20 μL/well. Following brief mixing, Viafect transfection reagent (Promega) diluted 16-fold into Opti-MEM was dispensed into the plates at 40 μL/well. After mixing by pipetting, plates were incubated for 10 min on the pipetting station deck. The DNA-transfection reagent complexes were then added to plates containing cells. To facilitate the screen, 10 μL of DNA-transfection reagent complexes were added in duplicates to the top 4 and bottom 4 rows, resulting in two identical 48-well arrays per plate. Plates with transfected cells were incubated for 18–20 h at 37 °C/5% CO2. A screen of each tracer across the entire library using two different concentrations requires duplicate plates of transfected cells. Depending on the number of tracers being screened, transfections can be scaled up using the same ratios. The next day, for each tracer, four 20× screening solutions in tracer dilution buffer (Promega) were prepared: two duplicates at final concentration of 20 μM and two duplicates at a final concentration of 2 μM. A competing unmodified compound was added to one of each duplicate at a final concentration of 400 μM. The four resulting solutions were diluted 4-fold in Opti-MEM without serum or phenol red to generate 5× solutions (5 µM and 0.5 µM tracer +/− 100 μM competing compound). To screen the library, a BioTek MultiFlo FX liquid dispenser was used to dispense 22.5 µL of tracer solution to the top 4 rows and 22.5 µL tracer + competing compound solution to the 4 bottom rows. Plates were briefly mixed on an orbital shaker and incubated for 1.5 h at room temperature. […]

[2] = biological target: T2, CXCR5 (Homo sapiens, UniProt P32302); assay: NanoBRET screen HiBiT-CXCR5 in HEK293
T2 construct: purchased Promega (in-house HiBiT-GPCR construct library, NanoBRET)
T2 sequence (P32302 1-372): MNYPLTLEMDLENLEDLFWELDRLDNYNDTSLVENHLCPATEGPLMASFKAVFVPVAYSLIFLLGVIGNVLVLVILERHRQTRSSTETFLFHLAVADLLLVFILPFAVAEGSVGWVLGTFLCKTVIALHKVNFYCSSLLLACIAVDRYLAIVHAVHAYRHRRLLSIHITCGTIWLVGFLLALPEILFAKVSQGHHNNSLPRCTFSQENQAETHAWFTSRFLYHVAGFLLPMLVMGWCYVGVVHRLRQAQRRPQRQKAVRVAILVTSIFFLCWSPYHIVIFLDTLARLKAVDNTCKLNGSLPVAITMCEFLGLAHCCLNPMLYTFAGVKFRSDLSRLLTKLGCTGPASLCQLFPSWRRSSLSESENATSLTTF
Protocol: as §1, §2

[3] = biological target: T3, FPR3 (Homo sapiens, UniProt P25089); assay: NanoBRET screen HiBiT-FPR3 in HEK293
T3 construct: purchased Promega (in-house HiBiT-GPCR construct library, NanoBRET)
T3 sequence (P25089 1-353): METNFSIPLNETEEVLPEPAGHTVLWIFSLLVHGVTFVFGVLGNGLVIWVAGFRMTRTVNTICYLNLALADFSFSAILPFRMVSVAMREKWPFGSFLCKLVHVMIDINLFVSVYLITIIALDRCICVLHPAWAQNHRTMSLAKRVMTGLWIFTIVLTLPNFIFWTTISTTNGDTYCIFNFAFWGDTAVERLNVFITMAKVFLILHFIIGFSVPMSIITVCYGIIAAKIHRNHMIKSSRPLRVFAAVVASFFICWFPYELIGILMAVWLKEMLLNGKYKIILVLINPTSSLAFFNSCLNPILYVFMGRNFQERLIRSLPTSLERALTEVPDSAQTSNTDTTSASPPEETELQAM
Protocol: as §1, §2

[4] = biological target: T4, CXCR6 (Homo sapiens, UniProt O00574); assay: NanoBRET screen HiBiT-CXCR6 in HEK293
T4 construct: purchased Promega (in-house HiBiT-GPCR construct library, NanoBRET)
Protocol: as §1, §2

[5] = biological target: T5, P2RY2 (Homo sapiens, UniProt P41231); assay: NanoBRET screen HiBiT-P2RY2 in HEK293
T5 construct: purchased Promega (in-house HiBiT-GPCR construct library, NanoBRET)
Protocol: as §1, §2

T5 sequence (P41231 whole entry): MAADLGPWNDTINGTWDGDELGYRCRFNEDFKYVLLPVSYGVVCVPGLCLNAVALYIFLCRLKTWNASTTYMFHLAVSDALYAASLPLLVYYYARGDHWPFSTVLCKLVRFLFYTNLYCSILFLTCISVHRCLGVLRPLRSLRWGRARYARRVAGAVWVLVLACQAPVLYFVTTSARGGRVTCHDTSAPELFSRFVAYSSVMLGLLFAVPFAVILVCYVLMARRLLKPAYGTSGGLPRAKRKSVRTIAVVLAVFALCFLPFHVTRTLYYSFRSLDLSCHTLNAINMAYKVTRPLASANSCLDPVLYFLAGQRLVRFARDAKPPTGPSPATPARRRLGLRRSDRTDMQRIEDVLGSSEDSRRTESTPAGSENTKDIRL
T4 sequence (O00574 whole entry): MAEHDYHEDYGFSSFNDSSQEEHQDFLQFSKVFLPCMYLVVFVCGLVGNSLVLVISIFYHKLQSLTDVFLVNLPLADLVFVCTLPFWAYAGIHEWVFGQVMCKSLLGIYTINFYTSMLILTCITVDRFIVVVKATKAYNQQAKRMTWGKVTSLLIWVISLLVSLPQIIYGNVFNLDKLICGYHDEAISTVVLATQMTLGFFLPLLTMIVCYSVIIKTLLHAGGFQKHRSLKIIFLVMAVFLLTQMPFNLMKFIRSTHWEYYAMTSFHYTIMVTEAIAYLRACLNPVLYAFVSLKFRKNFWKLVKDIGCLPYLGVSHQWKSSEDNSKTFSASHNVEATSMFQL

SMILES	NanoBRET Fold Response ([1]; RXFP3, 0.1μM tracer)	NanoBRET Fold Response ([1]; RXFP3, 1μM tracer)	NanoBRET Fold Response ([2]; CXCR5, 0.1μM tracer)	NanoBRET Fold Response ([2]; CXCR5, 1μM tracer)	NanoBRET Fold Response ([3]; FPR3, 0.1μM tracer)	NanoBRET Fold Response ([3]; FPR3, 1μM tracer)	NanoBRET Fold Response ([4]; CXCR6, 0.1μM tracer)	NanoBRET Fold Response ([4]; CXCR6, 1μM tracer)	NanoBRET Fold Response ([5]; P2RY2, 0.1μM tracer)	NanoBRET Fold Response ([5]; P2RY2, 1μM tracer)	other results
CN1CCN(C2=Nc3cc(Cl)ccc3Nc3ccc(CNC(=O)CCOCCOCCOCCOCCNC(=O)CCc4ccc5n4[B-](F)(F)[N+]4=C(c6ccc[nH]6)C=CC4=C5)cc32)CC1 [Clozapine-b-2-NB590]	0.99	1.04	0.95	1.02	1.06	1.23	1.01	1.00	0.96	1.00	–
COc1ccc2c(n1)c(CCNC(C)=O)cn2CCNC(=O)CCc1ccc2n1[B-](F)(F)[N+]1=C(c3ccc[nH]3)C=CC1=C2 [Azamelatonin-1-NB590]	–	–	–	–	–	–	–	–	–	–	NanoBRET Fold Response ([1]; 0.1μM tracer): 1.07; NanoBRET Fold Response ([1]; 1μM tracer): 1.11; NanoBRET Fold Response ([2]; 0.1μM tracer): 0.93; NanoBRET Fold Response ([2]; 1μM tracer): 1.19; NanoBRET Fold Response ([3]; 0.1μM tracer): 0.85; NanoBRET Fold Response ([3]; 1μM tracer): 1.06; NanoBRET Fold Response ([4]; 0.1μM tracer): 1.07; NanoBRET Fold Response ([4]; 1μM tracer): 0.89; NanoBRET Fold Response ([5]; 0.1μM tracer): 0.93; NanoBRET Fold Response ([5]; 1μM tracer): 0.93
O=C(CCc1ccc2n1[B-](F)(F)[N+]1=C(c3ccc[nH]3)C=CC1=C2)NCc1ccc(C(=O)NCCOCCOCCNCC(O)COc2cccc3ccccc23)cc1 (stereo not shown) [Propranolol-3-NB590]	–	–	–	–	–	–	–	–	–	–	NanoBRET Fold Response ([1]; RXFP3, 0.1μM): 1.14; NanoBRET Fold Response ([1]; RXFP3, 1μM): 1.08; NanoBRET Fold Response ([2]; CXCR5, 0.1μM): 1.02; NanoBRET Fold Response ([2]; CXCR5, 1μM): 1.06; NanoBRET Fold Response ([3]; FPR3, 0.1μM): 1.03; NanoBRET Fold Response ([3]; FPR3, 1μM): 1.03; NanoBRET Fold Response ([4]; CXCR6, 0.1μM): 0.99; NanoBRET Fold Response ([4]; CXCR6, 1μM): 0.88; NanoBRET Fold Response ([5]; P2RY2, 0.1μM): 1.07; NanoBRET Fold Response ([5]; P2RY2, 1μM): 1.03
O=C(CCOCCOCCOCCOCCNC(=O)CCc1ccc2n1[B-](F)(F)[N+]1=C(c3ccc[nH]3)C=CC1=C2)NCCCN1CCN(C2=Nc3cc(Cl)ccc3Nc3ccccc32)CC1 [Clozapine-a-2-NB590]	1.04	0.96	1.06	1.01	0.92	1.30	0.98	1.08	1.12	0.97	–
